One test addresses T1, human Sts-2HP (Homo sapiens, UniProt P57075).
T1 sequence (P57075 393-657): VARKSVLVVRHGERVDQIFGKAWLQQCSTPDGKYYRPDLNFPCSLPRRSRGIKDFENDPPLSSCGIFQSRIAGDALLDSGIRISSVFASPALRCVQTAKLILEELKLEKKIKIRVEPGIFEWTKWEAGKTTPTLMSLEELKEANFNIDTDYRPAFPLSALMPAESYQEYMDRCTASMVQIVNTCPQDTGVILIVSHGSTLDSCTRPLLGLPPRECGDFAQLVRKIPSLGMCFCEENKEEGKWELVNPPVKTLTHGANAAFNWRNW
In words: Steady state kinetics of phosphatase substrates, human Sts-2HP. In kind it is biochemical. The note with it: substrate as labelled, 298 K.

Test [1] deals with T2, human Sts-1HP (Homo sapiens, UniProt Q8TF42). In words: Steady state kinetics of phosphatase substrates, human Sts-1HP. In kind it is biochemical. The settings on record: substrate as labelled, 298 K.
T2 sequence (Q8TF42 380-647): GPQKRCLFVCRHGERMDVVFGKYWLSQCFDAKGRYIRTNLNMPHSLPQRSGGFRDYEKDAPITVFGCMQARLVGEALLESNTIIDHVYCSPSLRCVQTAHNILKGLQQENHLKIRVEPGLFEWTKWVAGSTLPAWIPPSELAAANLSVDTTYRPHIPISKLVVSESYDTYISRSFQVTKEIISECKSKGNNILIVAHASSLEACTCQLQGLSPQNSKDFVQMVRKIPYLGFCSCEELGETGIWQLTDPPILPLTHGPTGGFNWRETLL
In the next test the test system is PTP-1B. The settings on record: cited from earlier work.
Test [2] has as its target T2, human Sts-1HP. Briefly: Inhibition of Sts-1HP phosphatase activity. In kind it is biochemical. The settings on record: known phosphatase inhibitors tested.
Another test has as its target Full-length Sts-1 (Homo sapiens, UniProt Q8TF42). In words: Steady state kinetics of phosphatase substrates, full-length Sts-1. In kind it is biochemical. The note with it: substrate as labelled, 298 K.
In test [3] the target is histidine phosphatase domain of human Sts-1 (Sts-1HP) (human) (UniProt Q8TF42). In words: crystal structure.

Full-length Sts-1, sequence (Q8TF42 whole entry, the tested form may be a part): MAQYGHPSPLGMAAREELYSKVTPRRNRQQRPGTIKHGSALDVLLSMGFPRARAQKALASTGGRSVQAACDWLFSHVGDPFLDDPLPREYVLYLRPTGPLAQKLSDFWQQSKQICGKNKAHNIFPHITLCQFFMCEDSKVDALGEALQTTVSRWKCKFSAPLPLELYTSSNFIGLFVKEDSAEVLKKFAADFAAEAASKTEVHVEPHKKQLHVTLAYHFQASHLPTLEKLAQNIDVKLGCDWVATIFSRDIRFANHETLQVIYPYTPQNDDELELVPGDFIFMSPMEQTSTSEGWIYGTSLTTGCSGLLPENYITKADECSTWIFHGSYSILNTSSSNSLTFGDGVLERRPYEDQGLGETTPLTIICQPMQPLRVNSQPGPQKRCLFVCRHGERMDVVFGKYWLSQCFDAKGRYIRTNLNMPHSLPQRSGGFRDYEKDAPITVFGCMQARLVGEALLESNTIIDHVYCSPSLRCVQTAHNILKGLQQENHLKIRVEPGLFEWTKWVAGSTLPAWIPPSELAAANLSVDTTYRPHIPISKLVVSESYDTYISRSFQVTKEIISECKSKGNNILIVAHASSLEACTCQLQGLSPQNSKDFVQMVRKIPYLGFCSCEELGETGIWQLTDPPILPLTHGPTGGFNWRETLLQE

On to `Cc1cc(=O)oc2c(F)c(OP(=O)(O)O)c(F)cc12` [DifMUP, 6,8-Difluoro-4-Methylumbelliferyl Phosphate], for which, on human Sts-2HP, the Km was 0.85 ± 0.23 mM and the kcat turned out to be 4.92 ± 0.76 s⁻¹. Moreover, on human Sts-1HP [1], the Km is 2 µM and the kcat amounted to 100.68 s⁻¹.
Consider `CN(N=O)c1ccc(O)c(O)c1` [Methyl-dephostatin, methyl-3,4-dephostatin], for which, in the test with PTP-1B, the IC50 is 3.5 µM. For the same molecule, at human Sts-1HP [2], the “inhibition of Sts-1HP phosphatase activity (in words)” value (“inhibition” below) is given as “not affected”.
Turning to `COc1ccc2c(c1)Oc1cc(OP(=O)(O)O)ccc1C21OC(=O)c2ccccc21` (stereo not drawn) [OMFP, 3-O-Methylfluorescein phosphate], on human Sts-2HP, the Km stood at 1.07 ± 0.24 mM and the kcat came out at 5.86 ± 0.78 s⁻¹. In addition, at human Sts-1HP [1], the Km worked out at 190 ± 30 µM and the kcat came out at 786.1 ± 52.4 s⁻¹.
`O=C1C(=NNc2ccc(S(=O)(=O)O)cc2)C(c2ccc([N+](=O)[O-])cc2)=NN1c1ccccc1` [PHPS1, 4-[2-[1,5-dihydro-3-(4-nitrophenyl)-5-oxo-1-phenyl-4H-pyrazol-4-ylidene]hydrazinyl]-benzenesulfonic acid]: in the test on PTP-1B, the IC50 is 19 µM. Further, the “inhibition” value at human Sts-1HP [2] was “potent competitive inhibitor”.
With `Nc1ccc(S(=O)(=O)O)cc1` [Sulfanilic acid], the “inhibition” value on human Sts-1HP [2] is recorded as “modest inhibitor”.
With `O=[N+]([O-])c1ccc(OP(=O)(O)O)cc1` [pNPP, para-nitrophenyl phosphate], the Km on human Sts-2HP is 5.61 ± 1.69 mM; on human Sts-1HP [1], 2640 ± 480 µM; at Full-length Sts-1, 3.31 ± 0.27 mM. Also, the kcat amounted to 1.23 ± 0.15 s⁻¹ at human Sts-2HP, 13.62 ± 0.63 s⁻¹ on human Sts-1HP [1] and 158.6 ± 6.48 s⁻¹ on Full-length Sts-1.
With `O=P(O)(O)OC(CO)CO` [β-glycerophosphate], the “inhibition” value on human Sts-1HP [2] is reported as “did not show any observable level of inhibition”.
For the molecule “histidine phosphatase domain of human Sts-1 (Sts-1HP) (from UniProt Q8TF42 369-636) (domain or fragment)”, the stoichiometry N in test [3] was determined as 2.

The values above are taken from PMC5907918 (Biochemistry, 2017).
